pIC50: −log10 of the molar value. Where two headings read alike, the source gives them in different places.
Key:
[1] = system: Aβ40 in conditioned medium of cells stably expressing Amyloid Precursor Protein (APP); experiment: In vitro BACE cell-based assay (Aβ40 sandwich ELISA); conditions: Homo sapiens
How it was run: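 Secreted Aβ40 was quantified by sandwich ELISA (pAb40 capture, biotinylated 6E10 detection, Europium time-resolved fluorescence). IC50 derived from percent inhibition versus concentration.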

Cathepsin D (Cat D) = Cathepsin D (Cat D) (Homo sapiens (Human), UniProt P07339); experiment: In vitro enzymatic Cathepsin D (Cat D) FRET assay; assay type: biochemical; conditions: average; read-out: CatD IC50
How it was run: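 CHO-expressed recombinant Cat D cleaves a fluorophore/quencher FRET peptide (20 nM) in 0.05 M citrate pH 3.5, 5 mM CHAPS, 10% DMSO final, over 1 h. Tris addition neutralizes pH to stop the reaction; fluorescence read at excitation 500 nm, emission 580 nm.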

[2] = molecular target: Beta Secretase enzyme (BACE) (Homo sapiens (Human), UniProt P56817); experiment: In vitro enzymatic BACE FRET assay; assay type: biochemical; conditions: average; read-out: BACE 1 FRET assay IC50
How it was run: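 Reactions ran in 0.05 M acetate pH 4.2 with 10% DMSO final and 100 uM genapol. They were started with 50 nM peptide FRET substrate (fluorophore and quencher flanking the BACE cleavage site) and incubated one hour. Tris addition raised the pH to neutral to stop the reaction before fluorescence reading.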

[3] = HEK293, HEK cells, average, read-out: HEK cell assay IC50
[4] = HEK293, read-out: HEK cell assay IC50

Chain of Beta Secretase enzyme (BACE) (P56817 46-501): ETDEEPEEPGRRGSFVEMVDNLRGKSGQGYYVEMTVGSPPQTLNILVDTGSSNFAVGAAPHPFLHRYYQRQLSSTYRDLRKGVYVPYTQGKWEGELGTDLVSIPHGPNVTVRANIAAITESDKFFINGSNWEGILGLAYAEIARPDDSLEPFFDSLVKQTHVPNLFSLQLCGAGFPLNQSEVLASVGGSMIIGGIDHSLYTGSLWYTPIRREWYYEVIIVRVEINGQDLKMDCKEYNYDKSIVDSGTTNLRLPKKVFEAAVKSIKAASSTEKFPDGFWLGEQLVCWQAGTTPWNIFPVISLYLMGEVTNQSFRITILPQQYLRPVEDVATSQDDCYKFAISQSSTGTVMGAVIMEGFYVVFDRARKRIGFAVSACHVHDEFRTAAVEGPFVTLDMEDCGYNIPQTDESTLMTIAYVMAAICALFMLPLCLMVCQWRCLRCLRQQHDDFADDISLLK
Chain of Cathepsin D (Cat D) (P07339 65-412, species assumed): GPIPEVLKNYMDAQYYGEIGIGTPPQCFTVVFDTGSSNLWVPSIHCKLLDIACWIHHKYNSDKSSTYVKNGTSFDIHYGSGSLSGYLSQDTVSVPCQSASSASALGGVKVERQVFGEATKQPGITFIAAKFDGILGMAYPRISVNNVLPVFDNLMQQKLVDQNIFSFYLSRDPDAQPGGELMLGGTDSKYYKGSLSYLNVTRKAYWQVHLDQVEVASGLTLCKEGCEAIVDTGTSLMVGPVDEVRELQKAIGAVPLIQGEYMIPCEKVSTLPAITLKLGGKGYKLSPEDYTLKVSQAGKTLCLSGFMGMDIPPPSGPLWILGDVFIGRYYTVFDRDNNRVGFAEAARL

| SMILES | pIC50 [1, 3] | pIC50 (Cathepsin D (Cat D)) | pIC50 [2] | pIC50 [1, 4] |
| --- | --- | --- | --- | --- |
| COc1ccc(C(=O)Nc2cc(Cl)c(F)c([C@]3(C)C[C@@H](C(F)(F)F)OC(N)=N3)c2)nc1 [Example 209, N-(3-((4S,6S)-2-amino-4-methyl-6-(trifluoromethyl)-5,6-dihydro-4H-1,3-oxazin-4-yl)-5-chloro-4-fluorophenyl)-5-methoxypicolinamide] | 7.46 | 3.21 | 7.82 | – |
| C[C@@]1(c2cc(NC(=O)c3cnc(C(F)F)cn3)cc(Cl)c2F)C[C@@H](C(F)(F)F)OC(N)=N1 [Example 211, N-(3-((4S,6S)-2-amino-4-methyl-6-(trifluoromethyl)-5,6-dihydro-4H-1,3-oxazin-4-yl)-5-chloro-4-fluorophenyl)-5-(difluoromethyl)pyrazine-2-carboxamide] | – | 3.22 | 7.21 | 7.33 |
| C#CCOc1cnc(C(=O)Nc2cc(Cl)c(F)c([C@]3(C)C[C@@H](C(F)(F)F)OC(N)=N3)c2)cn1 [Example 212, N-(3-((4S,6S)-2-amino-4-methyl-6-(trifluoromethyl)-5,6-dihydro-4H-1,3-oxazin-4-yl)-5-chloro-4-fluorophenyl)-5-(prop-2-yn-1-yloxy)pyrazine-2-carboxamide] | 9.00 | 3.26 | > 8.70 | – |
| C[C@@]1(c2cc(NC(=O)c3ccc(Br)cn3)cc(Cl)c2F)C[C@@H](C(F)(F)F)OC(N)=N1 [Example 213, N-(3-((4S,6S)-2-amino-4-methyl-6-(trifluoromethyl)-5,6-dihydro-4H-1,3-oxazin-4-yl)-5-chloro-4-fluorophenyl)-5-bromopicolinamide] | 7.50 | 3.13 | 8.00 | – |
| C[C@@]1(c2cc(NC(=O)c3cnc(OCC(F)(F)F)cn3)cc(Cl)c2F)C[C@@H](C(F)(F)F)OC(N)=N1 [Example 214, N-(3-((4S,6S)-2-amino-4-methyl-6-(trifluoromethyl)-5,6-dihydro-4H-1,3-oxazin-4-yl)-5-chloro-4-fluorophenyl)-5-(2,2,2-trifluoroethoxy)pyrazine-2-carboxamide] | 7.54 | < 3.40 | 8.10 | – |
| COc1cnc(C(=O)Nc2cc(C)c(F)c([C@]3(CF)C[C@@H](C(F)(F)F)OC(N)=N3)c2)c(C)n1 [Example 217, N-(3-((4S,6S)-2-amino-4-(fluoromethyl)-6-(trifluoromethyl)-5,6-dihydro-4H-1,3-oxazin-4-yl)-4-fluoro-5-methylphenyl)-5-methoxy-3-methylpyrazine-2-carboxamide] | 7.42 | 3.20 | 7.09 | – |
| C#CCOc1cnc(C(=O)Nc2cc(C)c(F)c([C@]3(CF)C[C@@H](C(F)(F)F)OC(N)=N3)c2)cn1 [Example 218, N-(3-((4S,6S)-2-amino-4-(fluoromethyl)-6-(trifluoromethyl)-5,6-dihydro-4H-1,3-oxazin-4-yl)-4-fluoro-5-methylphenyl)-5-(prop-2-yn-1-yloxy)pyrazine-2-carboxamide] | 8.70 | 3.72 | 9.00 | – |
| Cc1cc(C#N)cnc1C(=O)Nc1cc(C)c(F)c([C@]2(CF)C[C@@H](C(F)(F)F)OC(N)=N2)c1 [Example 219, N-(3-((4S,6S)-2-amino-4-(fluoromethyl)-6-(trifluoromethyl)-5,6-dihydro-4H-1,3-oxazin-4-yl)-4-fluoro-5-methylphenyl)-5-cyano-3-methylpicolinamide] | 7.96 | < 3.40 | 7.70 | – |
| Cc1cc(OCC(F)(F)F)cnc1C(=O)Nc1cc(C)c(F)c([C@]2(CF)C[C@@H](C(F)(F)F)OC(N)=N2)c1 [Example 220, N-(3-((4S,6S)-2-amino-4-(fluoromethyl)-6-(trifluoromethyl)-5,6-dihydro-4H-1,3-oxazin-4-yl)-4-fluoro-5-methylphenyl)-3-methyl-5-(2,2,2-trifluoroethoxy)picolinamide] | – | 3.58 | 7.18 | 6.37 |
| COc1cc(Cl)cnc1C(=O)Nc1cc(C)c(F)c([C@]2(CF)C[C@@H](C(F)(F)F)OC(N)=N2)c1 [Example 222, N-(3-((4S,6S)-2-amino-4-(fluoromethyl)-6-(trifluoromethyl)-5,6-dihydro-4H-1,3-oxazin-4-yl)-4-fluoro-5-methylphenyl)-5-chloro-3-methoxypicolinamide] | 7.54 | < 3.40 | 7.04 | – |
| Cc1cc(NC(=O)c2ccc(C#N)cn2)cc([C@]2(CF)C[C@@H](C(F)(F)F)OC(N)=N2)c1F [Example 225, N-(3-((4S,6S)-2-amino-4-(fluoromethyl)-6-(trifluoromethyl)-5,6-dihydro-4H-1,3-oxazin-4-yl)-4-fluoro-5-methylphenyl)-5-cyanopicolinamide] | 7.62 | < 3.40 | 7.24 | – |
| COc1cnc(C(=O)Nc2cc(C)c(F)c([C@]3(CF)C[C@@H](C(F)(F)F)OC(N)=N3)c2)c(C)c1 [Example 226, N-(3-((4S,6S)-2-amino-4-(fluoromethyl)-6-(trifluoromethyl)-5,6-dihydro-4H-1,3-oxazin-4-yl)-4-fluoro-5-methylphenyl)-5-methoxy-3-methylpicolinamide] | 7.31 | 3.11 | 7.32 | – |
| Cc1cc(OC(F)F)cnc1C(=O)Nc1cc(C)c(F)c([C@]2(CF)C[C@@H](C(F)(F)F)OC(N)=N2)c1 [Example 228, N-(3-((4S,6S)-2-amino-4-(fluoromethyl)-6-(trifluoromethyl)-5,6-dihydro-4H-1,3-oxazin-4-yl)-4-fluoro-5-methylphenyl)-5-(difluoromethoxy)-3-methylpicolinamide] | 7.55 | 3.11 | 7.49 | – |
| Cc1cc(Nc2ncnc3cc(Cl)cnc23)cc([C@]2(CF)C[C@@H](C(F)(F)F)OC(N)=N2)c1F [Example 230, (4S,6S)-4-(5-((7-chloropyrido[3,2-d]pyrimidin-4-yl)amino)-2-fluoro-3-methylphenyl)-4-(fluoromethyl)-6-(trifluoromethyl)-5,6-dihydro-4H-1,3-oxazin-2-amine] | 7.24 | < 3.40 | 7.31 | – |
| COc1cccnc1Nc1cc(F)c(F)c([C@]2(C)C[C@@H](C(F)(F)F)OC(N)=N2)c1 [Example 231, (4S,6S)-4-(2,3-difluoro-5-((3-methoxypyridin-2-yl)amino)phenyl)-4-methyl-6-(trifluoromethyl)-5,6-dihydro-4H-1,3-oxazin-2-amine] | 6.79 | 3.55 | 6.75 | – |
| Cc1cc(C#N)cnc1C(=O)Nc1cc(F)c(F)c([C@]2(CF)C[C@@H](C(F)(F)F)OC(N)=N2)c1 [Example 232, N-(3-((4S,6S)-2-amino-4-(fluoromethyl)-6-(trifluoromethyl)-5,6-dihydro-4H-1,3-oxazin-4-yl)-4,5-difluorophenyl)-5-cyano-3-methylpicolinamide] | 7.26 | 3.25 | 7.80 | – |
| N#Cc1cnc(C(=O)Nc2cc(F)c(F)c([C@]3(CF)C[C@@H](C(F)(F)F)OC(N)=N3)c2)c(F)c1 [Example 234, N-(3-((4S,6S)-2-amino-4-(fluoromethyl)-6-(trifluoromethyl)-5,6-dihydro-4H-1,3-oxazin-4-yl)-4,5-difluorophenyl)-5-cyano-3-fluoropicolinamide] | – | < 3.40 | 7.42 | 7.24 |
| NC1=N[C@](CF)(c2cc(Oc3cc(-c4ccccc4)cc(Cl)n3)ccc2F)C[C@@H](C(F)(F)F)O1 [Example 235, (4S,6S)-4-(5-((6-chloro-4-phenylpyridin-2-yl)oxy)-2-fluorophenyl)-4-(fluoromethyl)-6-(trifluoromethyl)-5,6-dihydro-4H-1,3-oxazin-2-amine] | 5.09 | < 3.88 | < 4.40 | – |
| C[C@@]1(c2cc(NC(=O)c3ccc(C#N)cn3)cc(F)c2Cl)C[C@@H](C(F)(F)F)OC(N)=N1 [Example 238, N-(3-((4S,6S)-2-amino-4-methyl-6-(trifluoromethyl)-5,6-dihydro-4H-1,3-oxazin-4-yl)-4-chloro-5-fluorophenyl)-5-cyanopicolinamide] | 8.22 | 3.88 | 8.10 | – |
| COc1cnc(C(=O)Nc2cc(F)c(F)c([C@]3(C)C[C@@H](C(F)(F)F)OC(N)=N3)c2)c(F)c1 [Example 239, N-(3-((4S,6S)-2-amino-4-methyl-6-(trifluoromethyl)-5,6-dihydro-4H-1,3-oxazin-4-yl)-4,5-difluorophenyl)-3-fluoro-5-methoxypicolinamide] | 7.92 | 2.93 | 7.48 | – |
| C[C@@]1(c2cc(NC(=O)c3ncc(Br)cc3Cl)cc(F)c2F)C[C@@H](C(F)(F)F)OC(N)=N1 [Example 240, N-(3-((4S,6S)-2-amino-4-methyl-6-(trifluoromethyl)-5,6-dihydro-4H-1,3-oxazin-4-yl)-4,5-difluorophenyl)-5-bromo-3-chloropicolinamide] | – | 3.03 | 7.70 | 7.66 |
